Legend:
ratOT-R = target: T1, ratOT-R (Rattus norvegicus, UniProt P70536); assay: Inhibition of IP3 (inositol tri-phosphate)-synthesis in HEK/EBNA-OTR cells; type: cell-based; details: [3H]-inositol, oxytocin 10 nM
T1 construct: expressed in transfected cells; host or cells: HEK/EBNA cells
T1 sequence (P70536 1-388): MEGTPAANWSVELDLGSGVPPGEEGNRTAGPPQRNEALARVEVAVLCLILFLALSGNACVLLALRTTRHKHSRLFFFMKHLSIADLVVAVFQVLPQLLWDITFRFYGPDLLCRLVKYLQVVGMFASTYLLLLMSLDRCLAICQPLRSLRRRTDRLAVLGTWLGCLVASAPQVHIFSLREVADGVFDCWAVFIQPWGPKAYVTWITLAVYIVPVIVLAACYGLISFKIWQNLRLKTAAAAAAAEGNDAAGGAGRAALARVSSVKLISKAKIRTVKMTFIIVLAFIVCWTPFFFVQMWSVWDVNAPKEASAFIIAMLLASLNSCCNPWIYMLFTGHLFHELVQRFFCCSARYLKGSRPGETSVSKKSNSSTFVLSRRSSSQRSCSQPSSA
Procedure: e) Functional Assay No. 2: Inhibition of IP3 (Inositol Tri-Phosphate)-Synthesis in HEK/EBNA-OTR Cells
This assay intends to show the inhibition of the OT/OT-R mediated IP3 synthesis—being necessary to cause uterine contractions—by using test compounds of formula (I).
Stimulation of the cells: IIEK/EBNA OTR(rat or human) cells were plated out into costar 12-well plates, and equilibrated for 15-24 h with [^3H]-inositol radiolabel in medium without inositol supplement, with 1% FCS (0.5 ml/well). 4 μCi/ml were used. After this, the medium containing the label was aspirated. Then was added DMEM (without FCS, inositol), 20 mM Hepes (4-(2-hydroxyethyl)-1-piperazine-ethane-sulphonic acid), 1 mg/ml BSA containing 10 mM LiCl (freshly prepared), for […] at 37° C. The agonist (i.e. oxytocin used at a concentration of 10 nM) and the antagonists (i.e. the tests compounds of formula (1) used in a concentration of 10 μM, 1 μM, 300 nM, 100 nM, 10 nM, 1 nM, 100 pM, 10 pM, 3 pM) were added for the time required (15-45 min), followed by aspiration of the medium. Due to the […] of the OT receptor, the radiolabeled inositol is phosphorylated to yield IP3, the amount of the radiolabeled IP3 may be determined through the ensuing work-up. The reaction was stopped with 1 ml STOP-solution (i.e. 0.4 M perchloric acid), and let sit for 5-10 min at Room Temperature. Then, 0.8 ml were transferred into tubes containing 0.4 ml of neutralizing solution (0.72 M KOH/0.6M KHCO3), and the tubes vortexed and kept in the cold at least for 2 h.
Separation of IP's: The samples were spun in a table top centrifuge at 3000-4000 rpm for 15 min. 1 ml of the supernatant was transferred to new tubes containing 2.5 ml H2O. Packed resin (0.8 ml) was equilibrated with 20 ml H2O, and the whole samples poured onto the chromatography columns, thus separating the mixture. To discard free inositol, two washes with 10 ml H2O were carried out.
Elution of total IP's: The elution was achieved using 3 ml 1M ammonium formate/0.1M formic acid. The eluant was collected in scintillation counting tubes, followed by addition of 7 ml of scintillation liquid. The amount of IP3 is determined by a scintillating counter.
The activities of the sulfanilide derivatives claimed in the formula I were assessed using the above described in vitro biological assay. The values refer to the capacity of the example compounds according to formula I to effectively antagonize oxytocin-induced IP3-synthesis mediated by the oxytocin receptor.

[1] = tested on: oxytocin-induced uterine contractions in the rat; assay: In vivo model for inhibition of uterine contractions; details: anaesthetised DES-treated non-pregnant female rat, route not given
Procedure: f) In Vivo Model for Inhibition of Uterine Contractions
The assay intends to show the biological effect of tested compounds in an in vivo model of preterm labor, premature birth.
Non-pregnant Charles River CD(SD) BR female rats (9-10 weeks old, 200-250 g) were treated at 18 and 24 hours before the experiment with 250 μg/kg, i.p. diethylstilbestrol (DES). For the assay, the animal was anaesthetised by urethane (1.75 g/kg, i.p.) and placed on an homeothennic operating table. The trachea was isolated and cannulated with a suitable polyethylene (PE) tubing. A midline incision at the hypogastrium level was made and one uterine horn exposed, its cephalic end cannulated with a PE240 tubing and, after filling the internal cavity with 0.2 ml of sterile physiological saline, connected to a “Gemini” amplifying/recording system via a P231D Gould Statham pressure transducer. For the i.v. route of administration of the test compounds, one jugular vein was isolated and cannulated with a PE60 tubing connected to a butterfly needle to allow the administration by a dispensing syringe. In the case of intraduodenal administration of the test compounds, the duodenum was isolated and similarly cannulated through a small incision in its wall. One carotid artery was also isolated and cannulated with PE60 catheter and connected to a suitable syringe for blood sample collection (see below). After a stabilization period, the same dose of oxytocin was repeatedly injected intravenously at 30-min intervals. […] Further injections of the same dose of oxytocin were then made for a suitable time after treatment to assess inhibitory effects of the compounds under study. The contractile response of the uterus to oxytocin was quantified by measuring the intra-uterine pressure and the number of contractions. The effect of the reference and test compounds were evaluated by comparing pre- and post-treatment pressure values. In addition, at 2, 30, 90 and 210 minutes after test compound administration, a 0.5-ml blood sample was withdrawn from the cannulated carotid artery of each experimental animal. Plasma was obtained by standard laboratory procedure and the resulting samples were stored at −20° C.
The activities of the sulfanilide derivatives claimed in the Formula I were assessed using the above described in vivo biological assay. The values refer to the capacity of the example compound according to Formula I to effectively antagonize oxytocin-induced uterine contractions in the rat.

Structure (SMILES): CCOc1ccc(S(=O)(=O)N(CC(=O)N/N=C2/C(=O)Nc3ccccc32)c2ccc(C)cc2)cc1 [Example 5, 4-ethoxy-N-(4-methylphenyl)-N-{2-oxo-2-[2-(2-oxo-1,2-dihydro-3H-indol-3-ylidene)hydrazino]ethyl}benzenesulfonamide]
- IC50 (ratOT-R): 13 nM
- % Reduction of Uterine Contraction ([1]; dose 5 mg/kg): 23.9 ± 4.0%
- % Reduction of Uterine Contraction ([1]; dose 7.5 mg/kg): 40.3 ± 4.2%
- % Reduction of Uterine Contraction ([1]; dose 10 mg/kg): 62.6 ± 5.0%
